Assays:
[1] = target: T1, G12D-mutant human KRAS (amino acid residues 1-188) (Homo sapiens, UniProt P01116, G12D); assay: KRAS Binding Disruption Assay (AlphaScreen; biotinylated KRpep-2d analogue or RAF1-RBD), G12D; conditions: KRAS G12D; geometric mean; read-out: KRAS GMean IC50 (uM) MUTATION: G12D
T1 construct: G12D or G12C-mutant human KRAS (amino acid residues 1-188) with FLAG tag; made in house; host or cells: E. coli
Summary of the method: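 AlphaScreen readout: signal falls as compound displaces biotinylated KRpep-2d analogue or RAF1-RBD from mutant KRAS. Both partners at 5-20 nM, 1 h binding at 25° C, then 10 μg/mL Anti-Flag acceptor and streptavidin donor beads for 1 h. IC50 by nonlinear regression of % inhibition.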

[2] = target: T2, G12V-mutant human KRAS (amino acid residues 1-188) (Homo sapiens, UniProt P01116, G12V); assay: KRAS Binding Competition Assay (AlphaScreen; biotinylated KRpep-2d analogue), G12V; conditions: geometric mean, read-out: KRAS GMean IC50 (uM) MUTATION: G12V
T2 construct: G12V-mutant human KRAS (amino acid residues 1-188) with FLAG tag was purified from E. coli; made in house; host or cells: E. coli
Experimental: Compound binding disrupts the interaction of KRpep-2d with KRAS, leading to a decrease in Alpha signal.
All assay components were prepared in 20 mM HEPES (pH 7.5), 100 mM NaCl, 5 mM MgCl2, 0.01% Tween-20, and 0.01% BSA. Biotinylated analogues of KRpep-2d were custom synthesized. The binding competition assays were performed using 10 nM of mutant KRAS and 10 nM of biotinylated KRpep-2d analogue. 19 μL of KRAS protein and 4 μL of biotinylated KRpep-2d were added to the wells of a 384-well plate containing 1 μL of various concentrations of test compound or DMSO vehicle. 16 wells containing KRAS, biotinylated KRpep-2d, and 5% DMSO served as high controls. 16 wells containing KRAS only and 5% DMSO served as low controls. Binding reactions were incubated for 1 hour at 25° C., then Anti-Flag Acceptor and Streptavidin Donor Alpha beads were added at a final concentration of 10 μg/mL for an additional hour at room temperature. Alpha signal was read out on a Perkin Elmer Envision HTS instrument. The percentage inhibition at individual compound concentrations relative to high and low controls was calculated. The data were analyzed by using nonlinear regression to generate IC50 values.

Row | Compound | IC50 [1] [µM] | IC50 [2] [µM]
1 | Cc1cccc2cccc(-c3ccc4c(N5CC6CCC(C5)N6C(=O)CC#N)nc(OC[C@@H]5CCCN5C)nc4c3F)c12 (racemic) [P-0019, 3-((1R,5S)-3-(8-fluoro-7-(8-methylnaphthalen-1-yl)-2-(((RS)-1-methylpyrrolidin-2-yl)methoxy)quinazolin-4-yl)-3,8-diazabicyclo[3.2.1]octan-8-yl)-3-oxopropanenitrile] | 10 to 100 | 10 to 100
2 | CN1CCC[C@H]1COc1nc(N2CC3COCC(C2)N3C(=O)NC2CCOC2)c2ccc(-c3cc(O)cc4ccccc34)c(F)c2n1 (mixture of isomers) [P-0251, rac-7-(8-fluoro-7-(3-hydroxynaphthalen-1-yl)-2-(((R)-1-methylpyrrolidin-2-yl)methoxy)quinazolin-4-yl)-N-(tetrahydrofuran-3-yl)-3-oxa-7,9-diazabicyclo[3.3.1]nonane-9-carboxamide] | 0.0001 to 10 | 0.0001 to 10
3 | CN1CCC[C@H]1COc1nc(N2CC3CCC(C2)N3)c2ccc(N3CC(O)Cc4ccccc43)cc2n1 (mixture of isomers) [P-0256, 1-(4-((1R,5S)-3,8-diazabicyclo[3.2.1]octan-3-yl)-2-(((RS)-1-methylpyrrolidin-2-yl)methoxy)quinazolin-7-yl)-1,2,3,4-tetrahydroquinolin-3-ol] | 10 to 100 | 10 to 100
4 | CN1CCC[C@H]1COc1nc(N2CC3CCC(C2)N3C(=O)CCCN2CCOCC2)c2ccc(-c3cc(O)cc4ccccc34)c(F)c2n1 (racemic) [P-0429, 1-((1R,5S)-3-(8-fluoro-7-(3-hydroxynaphthalen-1-yl)-2-(((RS)-1-methylpyrrolidin-2-yl)methoxy)quinazolin-4-yl)-3,8-diazabicyclo[3.2.1]octan-8-yl)-4-morpholinobutan-1-one] | 0.0001 to 10 | 10 to 100
5 | Oc1cc(-c2ccc3c(N4C[C@H]5CC[C@@H](C4)N5)nc(N4CC5(CCNC5)C4)nc3c2F)c2ccccc2c1 [P-0599] | 0.0001 to 10 | –
6 | Oc1cc(-c2ccc3c(N4C[C@H]5CC[C@@H](C4)N5)nc(N4CC5(CCCNC5)C4)nc3c2F)c2ccccc2c1 [P-0600, 4-(4-((1R,5S)-3,8-diazabicyclo[3.2.1]octan-3-yl)-8-fluoro-2-(2,6-diazaspiro[3.5]nonan-2-yl)quinazolin-7-yl)naphthalen-2-ol] | 0.0001 to 10 | –
7 | CNC1CN(c2nc(N3C[C@H]4CC[C@@H](C3)N4)c3ccc(-c4cc(O)cc5ccccc45)c(F)c3n2)C1 [P-0601, 4-(4-((1R,5S)-3,8-diazabicyclo[3.2.1]octan-3-yl)-8-fluoro-2-(3-(methylamino)azetidin-1-yl)quinazolin-7-yl)naphthalen-2-ol] | 0.0001 to 10 | –
8 | Oc1cc(-c2ccc3c(N4C[C@H]5CC[C@@H](C4)N5)nc(N4CC(N5CCC(O)C5)C4)nc3c2F)c2ccccc2c1 (stereo partly drawn) [P-0602, 1-(1-(4-((1R,5S)-3,8-diazabicyclo[3.2.1]octan-3-yl)-8-fluoro-7-(3-hydroxynaphthalen-1-yl)quinazolin-2-yl)azetidin-3-yl)pyrrolidin-3-ol] | 0.0001 to 10 | –
9 | Cc1nccc2[nH]cc(-c3ccc4c(N5C[C@H]6CC[C@@H](C5)N6)nc(OCC56CCCN5CCC6)nc4c3F)c12 [P-0605, 4-((1R,5S)-3,8-diazabicyclo[3.2.1]octan-3-yl)-8-fluoro-7-(4-methyl-1H-pyrrolo[3,2-c]pyridin-3-yl)-2-((tetrahydro-1H-pyrrolizin-7a(5H)-yl)methoxy)quinazoline] | 10 to 100 | –
10 | OCCCc1cccc2[nH]cc(-c3ccc4c(N5C[C@H]6CC[C@@H](C5)N6)nc(OCC56CCCN5CCC6)nc4c3F)c12 [P-0606, 3-(3-(4-((1R,5S)-3,8-diazabicyclo[3.2.1]octan-3-yl)-8-fluoro-2-((tetrahydro-1H-pyrrolizin-7a(5H)-yl)methoxy)quinazolin-7-yl)-1H-indol-4-yl)propan-1-ol] | 0.0001 to 10 | –
11 | Nc1ccc(F)c(-c2c(F)cc3c(N4C[C@H]5CC[C@@H](C4)N5)nc(OCC45CCCN4CCC5)nc3c2F)c1 [P-0608, 3-(4-((1R,5S)-3,8-diazabicyclo[3.2.1]octan-3-yl)-6,8-difluoro-2-((tetrahydro-1H-pyrrolizin-7a(5H)-yl)methoxy)quinazolin-7-yl)-4-fluoroaniline] | 0.0001 to 10 | –
